pIC50: −log10 of the molar value.

Sequence of BIR3 domain of human cIAP1 (amino acids 256 to 363; cIAP1 BIR3) (Q13490 256-363): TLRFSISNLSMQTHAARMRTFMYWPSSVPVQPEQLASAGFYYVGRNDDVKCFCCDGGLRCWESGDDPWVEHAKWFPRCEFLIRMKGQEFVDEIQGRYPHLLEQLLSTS

The first assay concerns the target BIR3 domain of human cIAP1 (amino acids 256 to 363; cIAP1 BIR3) (Homo sapiens (Human), UniProt Q13490). Put plainly: cIAP1 BIR3 binding assay (DELFIA).
Details: not given
The procedure:
XIAP BIR3 and cIAP1 BIR3 Binding Assays (DELFIA)
Peptide […]-Lys(Biotin), representing the N-terminus of mature human SMAC (SMAC peptide), was used as interaction partner in the protein-peptide interaction assay.
BIR3 domains (10 nM) were incubated with SMAC peptide (10 nM) in assay buffer (50 mM Tris, 120 mM NaCl, 0.1% BSA, 1 mM DTT, 0.05% TritonX100) for one hour at room temperature in the presence of inhibitory compounds. The assay mixture was transferred to a streptavidin coated plate and incubated for one hour at room temperature to allow binding of the biotinylated peptide and associated BIR3 domains to the plate. After several washing steps Eu labeled anti-GST antibody (e.g. Perkin Elmer DELFIA Eu-N1-antiGST AD0250) was added to detect BIR3 domain-SMAC peptide interactions m according to Perkin Elmer's instructions. […] Time resolved Europium fluoresecence was measured in a Wallac Victor using Standard assay settings.
DELFIA assay results were plotted against compound concentrations and Software GraphPad Prizm was used to calculate half maximal inhibitory concentrations (IC50 values).
As a reminder, the pIC50 is the IC50 on a negative log10 scale, so that one unit is a factor of ten. Compound `CNC(C)C(=O)Nc1cc(-c2c(OC)ccc3cc(C#N)ccc23)cc(NC(=O)c2ccc(Cl)cn2)n1` (centres unmarked) [Example 25, 5-chloro-N-[4-(6-cyano-2-methoxynaphihalen-1-yl)-6-[2-(methylamino)propanamido]-pyridin-2-yl]pyridine-2-carboxamide] had a negative-log IC50 (pIC50) of 7.33.

Still in this assay, the particulars now being: BIR3 domain 10 nM, SMAC peptide 10 nM; values represent the (S)-isomers; * = racemic compound; read-out: cIAP1 BIR-3 IC50.
`CNC(C)C(=O)Nc1cc(-c2ccnc3cc(F)cc(F)c23)cc(NC(=O)c2ccc(Cl)cn2)n1` (centres unmarked) [Example 23, 5-chloro-N-[4-(5,7-difluoroquinolin-4-yl)-6-[2-(methylamino)propanamido]-pyridin-2-yl]pyridine-2-carboxamide]: the pIC50 is 8.10.
For the compound `CNC(C)C(=O)Nc1cc(-c2c(OC)ccc3nccc(C)c23)cc(NC(=O)c2ccc(Cl)cn2)n1` (centres unmarked) [Example 24, 5-chloro-N-[4-(6-methoxy-4-methylquinolin-5-yl)-6-[2-(methylamino)propanamido]-pyridin-2-yl]pyridine-2-carboxamide], the pIC50 is 9.00.
Take `CNC(C)C(=O)Nc1cc(-c2c(C)nc(C)c3c(=O)n(C)n(C)c23)cc(NC(=O)c2ccc(Cl)cn2)n1` (centres unmarked) [Example 26, 5-chloro-N-{6-[2-(methylamino)propanamido]-4-{1,2,4,6-tetramethyl-3-oxo-1H,2H,3H-pyrazolo[4,3-c]pyridin-7-yl}pyridin-2-yl}pyridine-2-carboxamide]: the negative-log IC50 (pIC50) is 9.00.
Same read-out and setting: the figure for `CNC(C)C(=O)Nc1cc(-c2c(Cl)c(C)nc3cc(Cl)cc(Cl)c23)cc(NC(=O)c2ccc(Cl)cn2)n1` (centres unmarked) [Example 27, 5-chloro-N-{6-[2-(methylamino)propanamido]-4-(3,5,7-trichloro-2-methylquinolin-4-yl)pyridin-2-yl}pyridine-2-carboxamide] is 7.74.
For the compound `CNC(C)C(=O)Nc1cc(-c2c(C)ccc3ncccc23)cc(NC(=O)c2cc3c(cn2)COC3)n1` (centres unmarked) [Example 28, N-{6-[2-(methylamino)propanamido]-4-(6-methylquinolin-5-yl)pyridin-2-yl}-1H,3H-furo[3,4-c]pyridine-6-carboxamide], the negative-log IC50 (pIC50) was 7.51.
`CNC(C)C(=O)Nc1cc(-c2c(C)ccc3ncccc23)cc(NC(=O)c2ccc(C)cn2)n1` (centres unmarked) [Example 29, 5-methyl-N-{6-[2-(methylamino)propanamido]-4-(6-methylquinolin-5-yl)pyridin-2-yl}pyridine-2-carboxamide]: the pIC50 is 7.55.
For `CNC(C)C(=O)Nc1cc(-c2c(C)ccc3ncccc23)cc(NC(=O)c2ccc(C#N)cn2)n1` (centres unmarked) [Example 30, 5-cyano-N-{6-[2-(methylamino)propanamido]-4-(6-methylquinolin-5-yl)pyridin-2-yl}pyridine-2-carboxamide], the pIC50 is 7.44.
Same read-out and setting: next, `CNC(C)C(=O)Nc1cc(-c2c(C)ccc3ncccc23)cc(NC(=O)c2ncc3ccccc3n2)n1` (centres unmarked) [Example 31, N-{6-[2-(methylamino)propanamido]-4-(6-methylquinolin-5-yl)pyridin-2-yl}quinazoline-2-carboxamide]: 7.28.
As for `CNC(C)C(=O)Nc1cc(-c2c(C)ccc3ncccc23)cc(NC(=O)c2ccc(F)cn2)n1` (centres unmarked) [Example 32, 5-fluoro-N-{6-[2-(methylamino)propanamido]-4-(6-methylquinolin-5-yl)pyridin-2-yl}pyridine-2-carboxamide], the pIC50 is 7.28.
As for `CNC(C)C(=O)Nc1cc(-c2c(C)ccc3ncccc23)cc(NC(=O)c2ccc(OC)cn2)n1` (centres unmarked) [Example 33, 5-methoxy-N-{6-[2-(methylamino)propanamido]-4-(6-methylquinolin-5-yl)pyridin-2-yl}pyridine-2-carboxamide], the pIC50 was 7.23.
In the case of `CNC(C)C(=O)Nc1cc(-c2c(C)ccc3ncccc23)cc(NC(=O)c2cnc(C)cn2)n1` (centres unmarked) [Example 34, 5-methyl-N-{6-[2-(methylamino)propanamido]-4-(6-methylquinolin-5-yl)pyridin-2-yl}pyrazine-2-carboxamide], the negative-log IC50 (pIC50) is 6.98.
Take `CNC(C)C(=O)Nc1cc(-c2c(C)ccc3ncccc23)cc(NC(=O)c2cc3ccccc3cn2)n1` (centres unmarked) [Example 35, N-{6-[2-(methylamino)propanamido]-4-(6-methylquinolin-5-yl)pyridin-2-yl}isoquinoline-3-carboxamide]: the pIC50 is 6.88.
Take `CNC(C)C(=O)Nc1cc(-c2c(C)ccc3ncccc23)cc(NC(=O)c2ccc3ccccc3n2)n1` (centres unmarked) [Example 36, N-{6-[2-(methylamino)propanamido]-4-(6-methylquinolin-5-yl)pyridin-2-yl}quinoline-2-carboxamide]: the pIC50 is 6.77.
On to `CNC(C)C(=O)Nc1cc(-c2c(C)ccc3ncccc23)cc(NC(=O)c2ccncn2)n1` (centres unmarked) [Example 37, N-{6-[2-(methylamino)propanamido]-4-(6-methylquinolin-5-yl)pyridin-2-yl)pyrimidine-4-carboxamide], for which the pIC50 was 6.37.
Same read-out and setting: the figure for `CNC(C)C(=O)Nc1cc(-c2c(C)ccc3ncccc23)cc(NC(=O)c2cc3ccccc3o2)n1` (centres unmarked) [Example 38, N-{6-[2-(methylamino)propanamido]-4-(6-methylquinolin-5-yl)pyridin-2-yl)-1-benzofuran-2-carboxamide] is 6.29; for `CNC(C)C(=O)Nc1cc(-c2c(C)ccc3ncccc23)cc(NC(=O)c2ccccn2)n1` (centres unmarked) [Example 39, N-{6-[2-(methylamino)propanamido]-4-(6-methylquinolin-5-yl)pyridin-2-yl}pyridine-2-carboxamide] it is 6.26.
Turning to `CNC(C)C(=O)Nc1cc(-c2c(C)ccc3ncccc23)cc(NC(=O)c2cccc(C)n2)n1` (centres unmarked) [Example 40, 6-methyl-N-{6-[2-(methylamino)propanamido]-4-(6-methylquinolin-5-yl)pyridin-2-yl}pyridine-2-carboxamide], the pIC50 was 6.22.
On to `CNC(C)C(=O)Nc1cc(-c2c(C)ccc3ncccc23)cc(NC(=O)c2ccn(C)n2)n1` (centres unmarked) [Example 41, 1-methyl-N-{6-[2-(methylamino)propanamido]-4-(6-methylquinolin-5-yl)pyridin-2-yl}-1H-pyrazole-3-carboxamide], for which the pIC50 is 6.15.
Still for that read-out and setting: the figure for `CNC(C)C(=O)Nc1cc(-c2c(C)ccc3ncccc23)cc(NC(=O)c2cc(Cl)ccn2)n1` (centres unmarked) [Example 42, 4-chloro-N-{6-[2-(methylamino)propanamido]-4-(6-methylquinolin-5-yl)pyridin-2-yl}pyridine-2-carboxamide] is 5.93; for `CNC(C)C(=O)Nc1cc(-c2c(C)ccc3ncccc23)cc(NC(=O)c2cccnn2)n1` (centres unmarked) [Example 43, N-{6-[2-(methylamino)propanamido]-4-(6-methylquinolin-5-yl)pyridin-2-yl}pyridazine-3-carboxamide] it is 5.58.
`CNC(C)C(=O)Nc1cc(-c2c(C)ccc3ncccc23)cc(NC(=O)c2ccc3cnccc3c2)n1` (centres unmarked) [Example 44, N-{6-[2-(methylamino)propanamido]-4-(6-methylquinolin-5-yl)pyridin-2-yl}isoquinoline-6-carboxamide]: the pIC50 is 5.50.
On to `CNC(C)C(=O)Nc1cc(-c2c(C)ccc3ncccc23)cc(NC(=O)c2cn(C)cn2)n1` (centres unmarked) [Example 45, 1-methyl-N-{6-[2-(methylamino)propanamido]-4-(6-methylquinolin-5-yl)pyridin-2-yl}-1H-imidazole-4-carboxamide], for which the pIC50 is 5.31.
Regarding `CNC(C)C(=O)Nc1cc(-c2c(C)ccc3ncccc23)cc(NC(=O)c2cc(-c3ccccc3)on2)n1` (centres unmarked) [Example 46, N-{6-[2-(methylamino)propanamido]-4-(6-methylquinolin-5-yl)pyridin-2-yl}-5-phenyl-1,2-oxazole-3-carboxamide], the pIC50 was 5.20.
On to `CNC(C)C(=O)Nc1cc(-c2ccncc2C)cc(NC(=O)c2ccc(Cl)cn2)n1` (centres unmarked) [Example 47, 5-chloro-N-{6-[2-(methylamino)propanamido]-4-(3-methylpyridin-4-yl)pyridin-2-yl}pyridine-2-carboxamide], for which the pIC50 is 7.77.
As to `CNC(C)C(=O)Nc1cc(-c2cccc3nc(C)c(C)n23)cc(NC(=O)c2cc3c(cn2)COC3)n1` (centres unmarked) [Example 48, N-(4-{2,3-dimethylimidazo[1,2-a]pyridin-5-yl}-6-[2-(methylamino)propanamido]pyridin-2-yl)-1H,3H-furo[3,4-c]pyridine-6-carboxamide], the negative-log IC50 (pIC50) is 9.00.
The same measure, in the same setting: next, `CNC(C)C(=O)Nc1cc(-c2cccc3nc(C)c(C)n23)cc(NC(=O)Cc2ccccc2)n1` (centres unmarked) [Example 49, N-(4-{2,3-dimethylimidazo[1,2-a]pyridin-5-yl}-6-(2-phenylacetamido)pyridin-2-yl)-2-(methylamino)propanamide]: 5.27.
As for `CNC(C)C(=O)Nc1cc(-c2cccc3nc(C)c(C)n23)cc(NC(=O)c2cc3ccccc3[nH]2)n1` (centres unmarked) [Example 50, N-(4-{2,3-dimethylimidazo[1,2-a]pyridin-5-yl}-6-[2-(methylamino)propanamido]pyridin-2-yl)-1H-indole-2-carboxamide], the negative-log IC50 (pIC50) is 6.46.
On the same count and under the same terms, next, `CNC(C)C(=O)Nc1cc(-c2cccc3nc(C)c(C)n23)cc(NC(=O)c2ccc(OC)cn2)n1` (centres unmarked) [Example 51, N-(4-{2,3-dimethylimidazo[1,2-a]pyridin-5-yl}-6-[2-(methylamino)propanamido]pyridin-2-yl)-5-methoxypyridine-2-carboxamide]: 9.00.
